Test results taken from patent publication US20110130375A1 (priority 2008, published 2011).

Columns and labels:
[1] = test system: isolated rabbit thoracic aorta preparations; assay: Assay on vascular tone (vasorelaxation of methoxamine-precontracted aortic rings); format: cell-based; details: for EC50: Oryctolagus cuniculus, read-out: EC50 (concentration producing 50% of the maximum relaxation)
Protocol: The ability of the compounds of the invention to induce vasorelaxation in comparison to precursor compound, was tested in vitro in isolated rabbit thoracic aorta preparations (Wanstall J. C. et al., Br. J. Pharmacol., 134:463-472, 2001).
Male New Zealand rabbits (1, 8-2 Kg) were used. The animals were anaesthetized with sodium thiopental (50 mg/kg, iv), sacrificed by exsanguinations and then the thorax was opened and the aorta dissected. The aortas were placed immediately in Krebs-HEPES buffer (pH 7.4; composition mM: NaCl 130.0, KCl 3.7, NaHCO3 14.9, KH2PO4 1.2, MgSO4⊙7H2O 1.2, Glucose 11.0, HEPES 10.0, CaCl2.2H2O 1.6) and cut into ring segments (4-5 mm in length). Each ring was placed in a 5 ml tissue bath filled with Krebs-HEPES buffer (37° C.) aerated with 95% O2 and 5% CO2 and was then attached to a force transducer (Grass FT03), connected to a BIOPAC MP150 System for measurement of the isometric tension^2. The preparations were allowed to equilibrate for 1 h at a resting tension of 2 g with changes of the buffer every 15 minutes and then stimulated by exposure to 90 mM KCl (3 times) with intervening washings. After equilibration, the rings were precontracted submaximally with methoxamine (3 μM) and, when the contraction reach a steady state a cumulative concentration-response curve to the test compounds was obtained. The time intervals between doses were based on the time needed to reach a full a steady state response.
Responses to test compounds were expressed as a percentage of residual contraction and plotted against concentration of test compound. EC50 values (where EC50 is the concentration producing 50% of the maximum relaxation to the test compound) were interpolated from these plots.

[2] = test system: corticosteroid-induced glaucoma; details: rabbit, administered topically twice a day; cited from earlier work

| SMILES | EC50 [1] [µM] | also measured |
| --- | --- | --- |
| COc1cc(C(=O)OCCCCO[N+](=O)[O-])ccc1OC(=O)OCC(=O)[C@@]1(OC(=O)CCCO[N+](=O)[O-])[C@@H](C)CC2C3CCC4=CC(=O)C=C[C@]4(C)[C@@]3(F)[C@@H](O)C[C@@]21C (stereo partly drawn) [Compound (3), 4-(nitrooxy)butyl 4-((2-((9R,10S,11S,13S,16S,17R)-9-fluoro-11-hydroxy-10,13,16-trimethyl-17-(4-(nitrooxy)butanoyloxy)-3-oxo-6,7,8,9,10,11,12,13,14,15,16,17-dodecahydro-3H-cyclopenta[a]phenanthren-17-yl)-2-oxoethoxy)carbonyloxy)-3-methoxybenzoate] | 1.14 ± 0.48 | – |
| C[C@@H]1C[C@H]2[C@@H]3CCC4=CC(=O)C=C[C@]4(C)[C@@]3(F)[C@@H](O)C[C@]2(C)[C@@]1(O)C(=O)COC(=O)c1ccc(CO[N+](=O)[O-])cc1 [dexamethasone 21-[(4-nitrooxymethyl)]benzoate] | – | effects in corticosteroid-induced glaucoma (intraocular pressure, retro bulbar circulation, ciliary body morphology) [2]: may prevent the intraocular pressure increase, the impairment of retro bulbar circulation, and the morphological changes in the ciliary bodies |
| C[C@H]1CC2C3CCC4=CC(=O)C=C[C@]4(C)[C@@]3(F)[C@@H](O)C[C@]2(C)[C@@]1(OC(=O)CCCO[N+](=O)[O-])C(=O)COC(=O)CCCO[N+](=O)[O-] (stereo partly drawn) [Compound (2), (9R,10S,11S,13S,16S,17R)-9-fluoro-11-hydroxy-10,13,16-trimethyl-17-(2-(4-(nitrooxy)butanoyloxy)acetyl)-3-oxo-6,7,8,9,10,11,12,13,14,15,16,17-dodecahydro-3H-cyclopenta[a]phenanthren-17-yl 4-(nitrooxy)butanoate] | 1.68 ± 0.61 | – |
| C[C@H]1C[C@H]2[C@@H]3CCC4=CC(=O)C=C[C@]4(C)[C@@]3(F)[C@@H](O)C[C@]2(C)[C@@]1(O)C(=O)CO [betamethasone, Betamethasone] | – | EC50 (concentration producing 50% of the maximum relaxation) ([1]; rabbit aortic rings precontracted with methoxamine (3 μM), cumulative concentration-response curve): no effect |
